Data taken from patent US8987195B2 (priority 2012, dated 2015).
Read-outs that look alike come from different tables or passages of the source.

Key:
[1] = rcm bond
[2] = from Boc-(2S)-2-aminonon-8-enoyl-Hyp-(vinylACCA)-OMe?; rcm bond; 15-membered ring; Hoveyda-Grubbs 1st gen; DCM; 9.85 mM; 40.0 °C
[3] = biological target: HCV NS3/4A protease genotype 1b (Hepatitis C virus genotype 1b, UniProt P26663); test: HCV NS3/4A protease time-resolved fluorescence (TRF) assay, Ki against genotype 1b; assay type: biochemical; details: IC50 [gt-1b] (nM), NS3/4A genotype 1b, enzyme 0.2 nM
Method in brief: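 NS3/4A enzyme was preincubated 30 min with inhibitor in 50 mM HEPES pH 7.5, 150 mM NaCl, 15% glycerol, 0.15% Triton X-100, 10 mM DTT, 0.1% PEG 8000; 25 nM europium TRF peptide substrate added, 2.5 h at room temperature. Enzyme: 0.2 nM (1b), 0.4 nM (A156T), 0.025 nM (3a). Ki from IC50 via Cheng-Prusoff.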

HCV genotype 1b replicon = test: HCV replicon assay, genotype 1b replicon EC50; assay type: cell-based, Hepatitis C virus; details: Hepatitis C virus, genotype 1b replicon; read-out: EC50 [gt-1b]
Method in brief: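 Cells harbouring a stable replicon are grown under G418 selection, then plated with test compound in G418-free medium for 24-48 hours. After washing and lysis, RNA or luciferase signal is measured and expressed as percent of DMSO control to give EC50.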

Work on `COC(=O)[C@@]12C[C@H]1/C=C\CCCCC[C@H](NC(=O)OC(C)(C)C)C(=O)N1C[C@H](O)C[C@H]1C(=O)N2` yielded a ring closure, yield of all isomers ([1]; from C=CCCCCC[C@H](NC(=O)OC(C)(C)C)C(=O)N1C[C@H](O)C[C@H]1C(=O)N[C@]1(C(=O)OC)C[C@H]1C=C, Grubbs-Hoveyda 1st generation catalyst, DCM, 9.85 mM, 40.0 °C, 40.0 h) of 74% and a ring closure, isolated yield [2] of 74%.
Work on `COCC1(S(=O)(=O)NC(=O)[C@@]23C[C@H]2/C=C\CCCCC[C@H](NC(=O)OC(C)(C)C)C(=O)N2C[C@@]4(CCc5c(c(C(F)(F)F)nc6ccc(OC)cc56)O4)C[C@H]2C(=O)N3)CC1` [Example 49, tert-Butyl ((2R,6S,13AS,14AR,16AS,Z)-9′-methoxy-14a-(((1-(methoxymethyl)cyclopropyl)sulfonyl)carbamoyl)-5,16-dioxo-5′-(trifluoromethyl)-1′,2′,3,5,6,7,8,9,10,11, 13A,14,14A,15,16,16A-hexadecahydro-1H-spiro[cyclopropa[e]pyrrolo[1,2-A][1,4]diazacyclopentadecine-2,3′-pyrano[2,3-c]quinolin]-6-yl)carbamate] yielded a ring closure, yield of all isomers ([1]; from C=CCCCCC[C@H](NC(=O)OC(C)(C)C)C(=O)N1C[C@@]2(CCc3c(c(C(F)(F)F)nc4ccc(OC)cc34)O2)C[C@H]1C(=O)N[C@]1(C(=O)NS(=O)(=O)C2(COC)CC2)C[C@H]1C=C, Zhan's catalyst, DCE, 2.9 mM, 80.0 °C, 4.0 h) of 33%, an IC50 [3] of 0.014 nM and an EC50 (HCV genotype 1b replicon) of 9.13 nM.
